The values that follow come from US12637718B2, “Predictive biomarkers for onvansertib treatment” (Cardiff Oncology, Inc., priority 2021, dated 2026).

Series [1] concerns patients with relapsed or refractory acute myeloid leukemia (R/R AML). Kind of series: Phase 1b/2 study (NCT03303339) of onvansertib in combination with decitabine. The class given is in vivo. To be noted: oral, days 1 through 5, in combination with decitabine 20 mg/m^2 intravenously. The source says: The terms “complete remission” or “complete recovery” as used herein can refer to the absence of extramedullary disease (e.g., leukemic cell aggregates outside of bone marrow), <5% blasts in the bone marrow, absence of circulating blasts and blasts with Auer rods (e.g., inclusion bodies), and platelets≥100×10^9/L and neutrophils≥1.0×10^9/L. The term “complete remission with incomplete hematologic recovery” can refer to all CR criteria except for residual neutropenia (neutrophils<1.0×10^9/L) or thrombocytopenia (platelets<100×10^9/L). The term “morphologic leukemia free state” (MFLS) can refer to <5% blasts in the bone marrow with no blasts with Auer rods and no extramedullary disease. The terms “partial response” or “partial remission” can refer to the presence of all hematologic criteria of CR, decrease of bone marrow blast percentage to 5% to 25%, and/or decrease of pretreatment bone marrow blast percentage by at least 50%. The term “Bone marrow response” (BMR) can refer to at least 50% decrease in bone marrow blast from baseline. In some embodiments, the term “overall response rate” (ORR) can refer to the combined CR, CRi, MFLS, and PR. In some embodiments a combined CR/CRi value is reported. […]

The subject of series [2] is adult subjects with advanced/metastatic solid tumors. To be noted: cited from earlier work.
Another series addresses PLK1 (Homo sapiens, UniProt P53350). To be noted: among a panel of 296 kinases, including other PLK members; cited from earlier work.
Series [3] has as its system cell lines, both from solid as well as hematologic tumors. The following applies: large number of cell lines; cited from earlier work.
For another series, the system named is cancer cell lines. To be noted: cited from earlier work.
The next series concerns xenograft tumor. To be noted: well tolerated doses, oral administration; cited from earlier work.
For series [4], the system named is HT29 human colon adenocarcinoma xenografts. To be noted: combination with irinotecan compared to each agent alone; cited from earlier work.
Series [5] relates to disseminated model of AML. To be noted: combination therapy with cytarabine; cited from earlier work.
For series [6] the following is noted: rodent and nonrodent species; cited from earlier work.
For series [7] the following is noted: in vivo; cited from earlier work.

Chain of PLK1 (P53350 whole entry): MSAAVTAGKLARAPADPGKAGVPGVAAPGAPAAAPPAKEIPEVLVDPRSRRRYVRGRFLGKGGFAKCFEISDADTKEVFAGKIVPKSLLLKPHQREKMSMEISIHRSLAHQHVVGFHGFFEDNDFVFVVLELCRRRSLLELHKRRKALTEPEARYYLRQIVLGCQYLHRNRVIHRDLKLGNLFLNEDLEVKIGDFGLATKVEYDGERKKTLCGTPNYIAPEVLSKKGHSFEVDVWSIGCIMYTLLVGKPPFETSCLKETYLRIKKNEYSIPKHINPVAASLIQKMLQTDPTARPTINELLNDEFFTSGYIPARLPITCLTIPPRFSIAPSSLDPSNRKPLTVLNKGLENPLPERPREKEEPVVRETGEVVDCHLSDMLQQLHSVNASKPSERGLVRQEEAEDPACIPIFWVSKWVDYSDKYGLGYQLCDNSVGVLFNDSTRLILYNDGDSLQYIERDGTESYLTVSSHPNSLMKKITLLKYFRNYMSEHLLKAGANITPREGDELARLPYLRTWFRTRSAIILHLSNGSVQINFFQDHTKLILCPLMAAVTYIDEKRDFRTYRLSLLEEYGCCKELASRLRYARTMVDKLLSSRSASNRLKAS

In the case of `CN1CCN(c2ccc(OC(F)(F)F)c(Nc3ncc4c(n3)-c3c(c(C(N)=O)nn3CCO)CC4)c2)CC1` [onvansertib, 1-(2-hydroxyethyl)-8-{[5-(4-methylpiperazin-1-yl)-2-(trifluoromethoxy)phenyl]amino}-4,5-dihydro-1H-pyrazolo[4,3-h] quinazoline-3-carboxamide], the maximum tolerated dose in [1] is listed as 60 mg/m^2. For the same compound, the “recommended phase 2 dose” value in [2] (advanced/metastatic solid tumors) is listed as 24 mg/m^2. In addition, in series [2] (in vivo), the primary dose-limiting toxicities result was “neutropenia and thrombocytopenia”. Besides, the “patients with stable disease” value in series [2] (of 16 evaluable patients) is listed as 5 patients. Also, the “recovery of hematologic toxicities” value in series [2] (reversible) is recorded as no more than 3 weeks. Besides, the “specificity for PLK1” value on PLK1 is “high specificity”. Also, the “potency in proliferation assays” value in [3] is reported as “low nanomolar activity”. Besides, in the series on cancer cell lines, the “effect on cell cycle” value is “potently causes a mitotic cell-cycle arrest followed by apoptosis”. Besides, the xenograft tumor growth result with xenograft tumor is “inhibits xenograft tumor growth”. For the same compound, in series [4], the tumor regression entry is recorded as “enhanced tumor regression”. Also, the survival of animals result in series [5] is “prolonged survival”. In addition, the oral bioavailability entry in series [6] is given as “good oral bioavailability”. For the same compound, in [7], the half-life result was “about 24 hours”.
